Key:
VCaP cells = assay: SRB growth inhibition assay, VCaP; type: cell-based, human; details: 10 μM enzalutamide, 10 μM KBU2046 added to control or enzalutamide treated cells, 72 hours
Protocol: LNCaP or VCaP cells cultured in hormone free media were treated with R1881 (R), KBU2046 (46) and/or enzalutamide (E). (FIGS. 3A and 3B) Effects on AR-responsive gene expression. PSA expression was measured by qRT/PCR, normalized to GAPDH and expressed as a percent of control cells (N=3 replicates); * denotes P<0.05 for groups separated by bar. (FIGS. 3C and 3D) Effects on cell growth. Three day growth assays were performed. Data are the number of viable cells, expressed as % of control (N=3 replicates); * P<0.05 compared to control. (E) Effects on AR activation. Western blots of nuclear (N) and cytoplasmic (C) preparations of cell extracts were probed for AR, laminin 1 or α-tubulin. (FIGS. 3F and 3G) Effects on tumor outgrowth after androgen deprivation therapy. LNCaP/AR-luc cells were implanted subcutaneously (N=6 mice/cohort) or orthotopic (N=15 mice/cohort were implanted; N=5 yielded tumors) into castrate mice, treatment with KBU2046 began as noted, and weekly IVIS imaging performed. Data are tumor size, expressed as luminescence intensity. All data are expressed as mean±SEM.
Enzalutamide mediated growth inhibition was assessed using Sulforhodamine B (SRB) growth inhibition assays, were performed as previously described (49). In brief, LNCaP and VCaP cells were pre-incubated in charcoal-striped medium for 48 hours and then seeded (1.9×10^4) in 96-well plates. […]

[1] = system: human prostate and breast cancer; details: oral administration, nanomolar concentrations; cited from earlier work
LNCaP/AR-luc cells = assay: Castration resistant PCa subcutaneous implantation, tumor outgrowth; type: in vivo, mice; details: subcutaneous implants, 80 mg/kg KBU2046 oral, treatment from 4 weeks
Protocol: To complete our assessments of the androgen related paradigm, the effect of KBU2046 on resistance to hormone therapy was evaluated. The outgrowth of LNCaP/AR-luc cells in castrate mice is routinely utilized as a model to emulate the transition to a castration resistant phenotype (Tran et al., Science 324, 787-790 (2009)). In this model, tumor outgrowth is detectable ˜8 weeks post implantation, and growth kinetics are typically monitored until 16 weeks post implantation. […]
LNCaP or VCaP cells cultured in hormone free media were treated with R1881 (R), KBU2046 (46) and/or enzalutamide (E). […] PSA expression was measured by qRT/PCR, normalized to GAPDH and expressed as a percent of control cells (N=3 replicates); * denotes P<0.05 for groups separated by bar. […] Data are the number of viable cells, expressed as % of control (N=3 replicates); * P<0.05 compared to control. […] Data are tumor size, expressed as luminescence intensity. All data are expressed as mean±SEM.
Castration resistant PCa subcutaneous implantation: 6-7 week old male athymic mice received trans-scrotal bilateral orchiectomy with a single incision in the midline of scrotums under general anesthesia and then allowed to recover for 10 days. […] Twice weekly tumor measurements were performed and androgen receptor activity monitored biweekly through IVIS imaging.

PC3-M cells = assay: 7 day colony formation assay, chemotherapy with or without KBU2046; type: cell-based, human
Protocol: (§1) To assess the impact of cytotoxic chemotherapy on PCa growth kinetics seven-day soft agar colony formation assays and three-day MTT cell growth inhibition assays were performed as described by us ([…] et al., Cancer Lett 352, 179-186 (2014)). MTT assays were in replicates of N=3, and were repeated, soft agar assays were in replicates of N=2 and are presented as mean number of colonies, expressed as percent of untreated controls. For PC3-M PCa and MDA-MB-231 triple negative breast cancer cells, data are the mean±SD (N=2 replicates) number of colonies in 7 day colony formation assays. All data are expressed as the percentage of untreated control cells. Cells were treated with 10 μM KBU2046 or vehicle (CO), and the indicated concentration and type of chemotherapy.

MEK1/2 and ERK1/2 = assay: Western blot of MEK1/2 and ERK1/2 phosphorylation in RANKL treated osteoclast cells; type: cell-based, mouse; details: 10 μM KBU2046, RANKL treated RAW 267.4 cells
PC3-luc cells = assay: PCa intracardiac injection model, bone destruction by CT and survival; type: in vivo, mice; details: oral 150 mg KBU2046/kg daily; intraperitoneal ZA 100 μg/kg weekly; CT
[2] = system: MDA-MB-231 human breast cancer cells; assay: 7 day colony formation assay, chemotherapy with or without KBU2046; type: cell-based
Protocol: as §1

O=C1c2ccccc2OCC1c1ccc(F)cc1 (stereo not shown) [KBU2046, 3-(4-fluorophenyl)chroman-4-one]
cell growth (VCaP cells): no significant effect | bone destruction [1]: decreases | metastasis [1]: inhibits | survival [1]: prolongs | tumor growth (outgrowth in castrate mice) (LNCaP/AR-luc cells): did not alter | effect on activity of adriamycin (PC3-M cells; 10 μM KBU2046, PC3-M cells, FIG. 14): does not inhibit | effect on activity of vinblastine (PC3-M cells; 10 μM KBU2046, PC3-M cells, FIG. 16): does not inhibit | effect on activity of taxol (PC3-M cells; 10 μM KBU2046, PC3-M cells, FIG. 18): does not inhibit | interference upon cytotoxic action of adriamycin, taxol and vinblastine (PC3-M cells; KBU2046 co-administered, PC3-M cells): lack of interference | MEK1/2 and ERK1/2 phosphorylation (MEK1/2 and ERK1/2): inhibition | improvement of femur bone density compared to control (PC3-luc cells): 22±2.4% | inhibition of bone destruction in the mandible compared to control (PC3-luc cells): 33±4.2% | effect on activity of adriamycin ([2]; 10 μM KBU2046, MDA-MB-231 cells, FIG. 13): does not inhibit | effect on activity of vinblastine ([2]; 10 μM KBU2046, MDA-MB-231 cells, FIG. 15): does not inhibit | effect on activity of taxol ([2]; 10 μM KBU2046, MDA-MB-231 cells, FIG. 17): does not inhibit | interference upon cytotoxic action of adriamycin, taxol and vinblastine ([2]; KBU2046 co-administered, MDA-MB-231 cells): lack of interference

From US20220133894A1, “BISPHOSPHONATE-LINKED COMPOUNDS” (OREGON HEALTH & SCIENCE UNIVERSITY, priority 2019, published 2022)
